# Data taken from patent US20230295197A1, “STAT5 and STAT6 Degraders and Uses Thereof” (REGENTS OF THE UNIVERSITY OF MICHICAN, priority 2022, published 2023).
# Target: T1, STAT6 (Homo sapiens, UniProt P42226)
# T1 construct: endogenous in cells; host or cells: MOLM-16, KU-812, SKNO1, MB231, L1236
# T1 sequence (P42226 1-847): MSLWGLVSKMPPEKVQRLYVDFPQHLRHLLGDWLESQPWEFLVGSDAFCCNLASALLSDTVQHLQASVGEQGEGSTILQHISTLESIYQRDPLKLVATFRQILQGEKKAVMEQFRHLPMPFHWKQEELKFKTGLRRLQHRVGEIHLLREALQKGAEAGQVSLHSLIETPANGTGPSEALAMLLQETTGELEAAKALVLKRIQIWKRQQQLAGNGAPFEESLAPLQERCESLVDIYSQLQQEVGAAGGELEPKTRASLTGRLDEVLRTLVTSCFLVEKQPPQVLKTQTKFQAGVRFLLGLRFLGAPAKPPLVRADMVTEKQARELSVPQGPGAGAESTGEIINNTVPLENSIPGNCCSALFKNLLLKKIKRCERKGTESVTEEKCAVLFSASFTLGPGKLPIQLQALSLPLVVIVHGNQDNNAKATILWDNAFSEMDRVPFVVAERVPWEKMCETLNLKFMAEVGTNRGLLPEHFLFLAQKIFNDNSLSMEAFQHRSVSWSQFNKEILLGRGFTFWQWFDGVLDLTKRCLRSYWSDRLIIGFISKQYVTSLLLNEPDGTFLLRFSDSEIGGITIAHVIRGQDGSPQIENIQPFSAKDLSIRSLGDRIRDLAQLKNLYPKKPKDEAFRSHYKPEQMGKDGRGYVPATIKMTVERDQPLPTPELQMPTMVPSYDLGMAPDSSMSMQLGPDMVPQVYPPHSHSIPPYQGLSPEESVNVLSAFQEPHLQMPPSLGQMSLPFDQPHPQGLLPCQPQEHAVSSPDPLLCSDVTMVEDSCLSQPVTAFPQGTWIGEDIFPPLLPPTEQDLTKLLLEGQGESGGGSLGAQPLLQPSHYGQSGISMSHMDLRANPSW
# Assay: Immunoblotting (Western blot) analysis of STAT6 degradation efficiency of degraders in treated cells
# Assay type: cell-based
# Details: L1236 cells, read-out: DC50 S6 L1236
# Method in brief: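 Degradation read by quantitative near-infrared Western blot: equal protein loads (20-40 μg) from compound-treated versus untreated cells, probed overnight at 4° C. for STAT5 or STAT6 with GAPDH reference. Compound concentrations and exposure times as indicated; cells grown in medium with 10% FBS at 37° C.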
row,Compound,DC50 [µM]
1,"Cc1ncsc1-c1ccc([C@H](C)NC(=O)[C@@H]2C[C@@H](O)CN2C(=O)[C@@H](NC(=O)CCCNC(=O)CC(=O)N2CCN(C(=O)[C@@H](NC(=O)c3cc4cc(C(F)(F)P(=O)(O)O)ccc4s3)C(C)(C)C)[C@H](C(=O)N3CCO[C@H](c4ccccc4)C3)C2)C(C)(C)C)cc1 [Compound 445, (difluoro(2-(((S)-1-((S)-4-(3-((4-(((S)-1-((2S,4R)-4-hydroxy-2-(((S)-1-(4-(4-methylthiazol-5-yl)phenyl)ethyl)carbamoyl)pyrrolidin-1-yl)-3,3-dimethyl-1-oxobutan-2-yl)amino)-4-oxobutyl)amino)-3-oxopropanoyl)-2-((R)-2-phenylmorpholine-4-carbonyl)piperazin-1-yl)-3,3-dimethyl-1-oxobutan-2-yl)carbamoyl)benzo[b]thiophen-5-yl)methyl)phosphonic acid]",> 10
2,"Cc1ncsc1-c1ccc([C@H](C)NC(=O)[C@@H]2C[C@@H](O)CN2C(=O)[C@@H](NC(=O)CCCCCCCCCNC(=O)CO[C@H]2C[C@@H](C(=O)N3CCO[C@H](c4ccccc4)C3)N(C(=O)[C@@H](NC(=O)c3cc4cc(C(F)(F)P(=O)(O)O)ccc4s3)C(C)(C)C)C2)C(C)(C)C)cc1 [Compound 433, (difluoro(2-(((S)-1-((2S,4S)-4-(2-((10-(((S)-1-((2S,4R)-4-hydroxy-2-(((S)-1-(4-(4-methylthiazol-5-yl)phenyl)ethyl)carbamoyl)pyrrolidin-1-yl)-3,3-dimethyl-1-oxobutan-2-yl)amino)-10-oxodecyl)amino)-2-oxoethoxy)-2-((R)-2-phenylmorpholine-4-carbonyl)pyrrolidin-1-yl)-3,3-dimethyl-1-oxobutan-2-yl)carbamoyl)benzo[b]thiophen-5-yl)methyl)phosphonic acid]",> 10

# Same assay, conditions: MB231 cells, read-out: DC50 S6 MB231
row,Compound,DC50 [µM]
1,"Cc1cc([C@H](C(=O)N2C[C@H](O)C[C@H]2C(=O)N[C@@H](CC(=O)NCCCCCCCCCCNC(=O)CCN(C(=O)[C@@H]2CCCN2C(=O)[C@@H](NC(=O)c2cc3cc(C(F)(F)P(=O)(O)O)ccc3s2)C(C)(C)C)c2ccc(Br)cc2)c2ccc(-c3scnc3C)cc2)C(C)C)on1 [Compound 407, ((2-(((S)-1-((S)-2-((4-bromophenyl)(3-((10-((S)-3-((2S,4R)-4-hydroxy-1-((R)-3-methyl-2-(3-methylisoxazol-5-yl)butanoyl)pyrrolidine-2-carboxamido)-3-(4-(4-methylthiazol-5-yl)phenyl)propanamido)decyl)amino)-3-oxopropyl)carbamoyl)pyrrolidin-1-yl)-3,3-dimethyl-1-oxobutan-2-yl)carbamoyl)benzo[b]thiophen-5-yl)difluoromethyl)phosphonic acid]",> 10

# Same assay, conditions: MOLM-16 cells, class symbols, read-out: DC50 S6 MOLM-16
row,Compound,DC50 [µM]
1,"Cc1ncsc1-c1ccc([C@H](C)NC(=O)[C@@H]2C[C@@H](O)CN2C(=O)[C@@H](NC(=O)CCCNC(=O)CC(=O)N2CCN(C(=O)[C@@H](NC(=O)c3cc4cc(C(F)(F)P(=O)(O)O)ccc4s3)C(C)(C)C)[C@H](C(=O)N3CCO[C@H](c4ccccc4)C3)C2)C(C)(C)C)cc1 [Compound 445, (difluoro(2-(((S)-1-((S)-4-(3-((4-(((S)-1-((2S,4R)-4-hydroxy-2-(((S)-1-(4-(4-methylthiazol-5-yl)phenyl)ethyl)carbamoyl)pyrrolidin-1-yl)-3,3-dimethyl-1-oxobutan-2-yl)amino)-4-oxobutyl)amino)-3-oxopropanoyl)-2-((R)-2-phenylmorpholine-4-carbonyl)piperazin-1-yl)-3,3-dimethyl-1-oxobutan-2-yl)carbamoyl)benzo[b]thiophen-5-yl)methyl)phosphonic acid]",> 10
2,"Cc1ncsc1-c1ccc([C@H](C)NC(=O)[C@@H]2C[C@@H](O)CN2C(=O)[C@@H](NC(=O)CNC(=O)COc2ccc3c(c2)CN(C(=O)[C@@H](NC(=O)c2cc4cc(C(F)(F)P(=O)(O)O)ccc4s2)C(C)(C)C)[C@H](C(=O)N2CCC[C@H](c4ccccc4)C2)C3)C(C)(C)C)cc1 [Compound 470, (difluoro(2-(((S)-1-((S)-7-(2-((2-(((S)-1-((2S,4R)-4-hydroxy-2-(((S)-1-(4-(4-methylthiazol-5-yl)phenyl)ethyl)carbamoyl)pyrrolidin-1-yl)-3,3-dimethyl-1-oxobutan-2-yl)amino)-2-oxoethyl)amino)-2-oxoethoxy)-3-((R)-3-phenylpiperidine-1-carbonyl)-3,4-dihydroisoquinolin-2(1H)-yl)-3,3-dimethyl-1-oxobutan-2-yl)carbamoyl)benzo[b]thiophen-5-yl)methyl)phosphonic acid]",> 10
3,"CC(C)(C)[C@H](NC(=O)c1cc2cc(C(F)(F)P(=O)(O)O)ccc2s1)C(=O)N1CCN(C(=O)CC(=O)NCCCCC#Cc2cccc3c2C(=O)N(C2CCC(=O)NC2=O)C3=O)C[C@H]1C(=O)N1CCO[C@H](c2ccccc2)C1 (stereo partly drawn) [Compound 513, ((2-(((2S)-1-((2S)-4-(3-((6-(2-(2,6-dioxopiperidin-3-yl)-1,3-dioxoisoindolin-4-yl)hex-5-yn-1-yl)amino)-3-oxopropanoyl)-2-((R)-2-phenylmorpholine-4-carbonyl)piperazin-1-yl)-3,3-dimethyl-1-oxobutan-2-yl)carbamoyl)benzo[b]thiophen-5-yl)difluoromethyl)phosphonic acid]",> 10
4,"Cc1ncsc1-c1ccc([C@H](C)NC(=O)[C@@H]2C[C@@H](O)CN2C(=O)[C@@H](NC(=O)CCCCCCCCCNC(=O)CO[C@H]2C[C@@H](C(=O)N3CCO[C@H](c4ccccc4)C3)N(C(=O)[C@@H](NC(=O)c3cc4cc(C(F)(F)P(=O)(O)O)ccc4s3)C(C)(C)C)C2)C(C)(C)C)cc1 [Compound 433, (difluoro(2-(((S)-1-((2S,4S)-4-(2-((10-(((S)-1-((2S,4R)-4-hydroxy-2-(((S)-1-(4-(4-methylthiazol-5-yl)phenyl)ethyl)carbamoyl)pyrrolidin-1-yl)-3,3-dimethyl-1-oxobutan-2-yl)amino)-10-oxodecyl)amino)-2-oxoethoxy)-2-((R)-2-phenylmorpholine-4-carbonyl)pyrrolidin-1-yl)-3,3-dimethyl-1-oxobutan-2-yl)carbamoyl)benzo[b]thiophen-5-yl)methyl)phosphonic acid]",> 10
5,"CC(C)(C)[C@H](NC(=O)c1cc2cc(C(F)(F)P(=O)(O)O)ccc2s1)C(=O)N1C[C@@H](OCC(=O)NCCCCC#Cc2cccc3c2C(=O)N(C2CCC(=O)NC2=O)C3=O)C[C@H]1C(=O)N1CCC[C@H](c2ccccc2)C1 (stereo partly drawn) [Compound 499, ((2-(((2S)-1-((2S,4S)-4-(2-((6-(2-(2,6-dioxopiperidin-3-yl)-1,3-dioxoisoindolin-4-yl)hex-5-yn-1-yl)amino)-2-oxoethoxy)-2-((R)-3-phenylpiperidine-1-carbonyl)pyrrolidin-1-yl)-3,3-dimethyl-1-oxobutan-2-yl)carbamoyl)benzo[b]thiophen-5-yl)difluoromethyl)phosphonic acid]",> 10
6,"CC(C)(C)[C@H](NC(=O)c1cc2cc(C(F)(F)P(=O)(O)O)ccc2s1)C(=O)N1CCN(C(=O)CC(=O)NCCCCCCCCC#Cc2cccc3c2C(=O)N(C2CCC(=O)NC2=O)C3=O)C[C@H]1C(=O)N1CCC[C@H](c2ccccc2)C1 (stereo partly drawn) [Compound 531, ((2-(((2S)-1-((2S)-4-(3-((10-(2-(2,6-dioxopiperidin-3-yl)-1,3-dioxoisoindolin-4-yl)dec-9-yn-1-yl)amino)-3-oxopropanoyl)-2-((R)-3-phenylpiperidine-1-carbonyl)piperazin-1-yl)-3,3-dimethyl-1-oxobutan-2-yl)carbamoyl)benzo[b]thiophen-5-yl)difluoromethyl)phosphonic acid]",> 10
7,"CC(C)(C)[C@H](NC(=O)c1cc2cc(C(F)(F)P(=O)(O)O)ccc2s1)C(=O)N1C[C@@H](OCC(=O)NCCCCC#Cc2ccc3c(c2)C(=O)N(C2CCC(=O)NC2=O)C3=O)C[C@H]1C(=O)N1CCO[C@H](c2ccccc2)C1 (stereo partly drawn) [Compound 486, ((2-(((2S)-1-((2S,4S)-4-(2-((6-(2-(2,6-dioxopiperidin-3-yl)-1,3-dioxoisoindolin-5-yl)hex-5-yn-1-yl)amino)-2-oxoethoxy)-2-((R)-2-phenylmorpholine-4-carbonyl)pyrrolidin-1-yl)-3,3-dimethyl-1-oxobutan-2-yl)carbamoyl)benzo[b]thiophen-5-yl)difluoromethyl)phosphonic acid]",> 10
8,"CC(C)(C)[C@H](NC(=O)c1cc2cc(C(F)(F)P(=O)(O)O)ccc2s1)C(=O)N1Cc2cc(OCC(=O)NCCC#Cc3cccc4c3C(=O)N(C3CCC(=O)NC3=O)C4=O)ccc2C[C@H]1C(=O)N1CCC[C@H](c2ccccc2)C1 (stereo partly drawn) [Compound 551, ((2-(((2S)-1-((3S)-7-(2-((4-(2-(2,6-dioxopiperidin-3-yl)-1,3-dioxoisoindolin-4-yl)but-3-yn-1-yl)amino)-2-oxoethoxy)-3-((R)-3-phenylpiperidine-1-carbonyl)-3,4-dihydroisoquinolin-2(1H)-yl)-3,3-dimethyl-1-oxobutan-2-yl)carbamoyl)benzo[b]thiophen-5-yl)difluoromethyl)phosphonic acid]",> 10
9,"CC(C)(C)[C@H](NC(=O)c1cc2cc(C(F)(F)P(=O)(O)O)ccc2s1)C(=O)N1C[C@@H](OCC(=O)NCC#Cc2ccc3c(c2)C(=O)N(C2CCC(=O)NC2=O)C3=O)C[C@H]1C(=O)N1CCO[C@H](c2ccccc2)C1 (stereo partly drawn) [Compound 480, ((2-(((2S)-1-((2S,4S)-4-(2-((3-(2-(2,6-dioxopiperidin-3-yl)-1,3-dioxoisoindolin-5-yl)prop-2-yn-1-yl)amino)-2-oxoethoxy)-2-((R)-2-phenylmorpholine-4-carbonyl)pyrrolidin-1-yl)-3,3-dimethyl-1-oxobutan-2-yl)carbamoyl)benzo[b]thiophen-5-yl)difluoromethyl)phosphonic acid]",> 10

# Same assay, conditions: MOLM-16 cells, numeric bound, read-out: DC50 S6 MOLM-16
row,Compound,DC50 [µM]
1,"CC(C)(C)[C@H](NC(=O)c1cc2cc(C(F)(F)P(=O)(O)O)ccc2s1)C(=O)N1CCN(C(=O)CCCCCC#Cc2ccc3c(c2)CN(C2CCC(=O)NC2=O)C3=O)C[C@H]1C(=O)N1CCO[C@H](c2ccccc2)C1 (stereo partly drawn) [Compound 596, ((2-(((2S)-1-((2S)-4-(8-(2-(2,6-dioxopiperidin-3-yl)-1-oxoisoindolin-5-yl)oct-7-ynoyl)-2-((R)-2-phenylmorpholine-4-carbonyl)piperazin-1-yl)-3,3-dimethyl-1-oxobutan-2-yl)carbamoyl)benzo[b]thiophen-5-yl)difluoromethyl)phosphonic acid]",> 0.3
